Laboratory results reported in a melting point compilation (Tetko et al.; mined from patent text by program, amines drawn as free bases though some values may be those of a salt).

First: COC(=O)c1cccc(NC(=O)c2ccccc2)c1O
Second: NNC(=O)c1cccc(C(=O)N(NC(=O)c2ccccc2)C(=O)c2ccccc2)c1
The melting point of the first is lower: 105 °C for the first, 297 to 299 °C for the second.

First: Cc1nccc(N2CCC(C(=O)N3CCN(S(=O)(=O)c4ccc(Br)cc4)CC3)CC2)n1
Second: CCS(=O)(=O)Nc1cnc(N2CCC(C(=O)O)CC2)nc1NCc1ccccc1
The melting point of the first is lower: 200 to 202 °C for the first, 205 °C for the second.

Compared with `Cc1cc(Cl)cc2nc3c(=O)[nH][nH]c(=O)c3c(O)c12`, `COc1ccc2c(c1OC)C(=O)c1c-2c(Cl)nc2ccc(Cl)cc12` is higher in melting point: 117 to 119 °C for the first, 149 to 151 °C for the second.

First: CC12CC(C#N)(CC1=O)C(C)(C)O2 (configuration not stated)
Second: COC(=O)C1CCC2C3CC(=O)C4(O)CC(O)CCC4(C)C3CCC12C (configuration not stated)
The melting point of the first is lower: 74 to 76 °C for the first, 258 to 260 °C for the second.

Compared with `ON=C(Cl)c1ccc(C(Cl)=NO)cc1`, `Cc1ccc(CC(O)=S)cc1` is lower in melting point: 178 to 180 °C for the first, 94.5 to 95 °C for the second.

Compared with `O=C1NCC(c2c[nH]c3ccccc23)C1c1cn2c3c(cccc13)CCC2` (configuration not stated), `O=c1cc(CCN2CCC(c3c[nH]c4ccccc34)CC2)c2cc([N+](=O)[O-])ccc2[nH]1` is higher in melting point: 241 to 243 °C for the first, 251 to 253 °C for the second.

Compared with `Cc1noc(C)c1C(C)(O)c1ccsc1` (configuration not stated), `COC(=O)CCc1nc(-c2cccc(NC(=O)OC(C)(C)C)c2)no1` is lower in melting point: 93.5 to 95 °C for the first, 90 to 91 °C for the second.

First: Nc1ccc(-c2nc3cc(N)ccc3o2)cc1
Second: N=C(N)c1ccc(-c2cnc(-c3ccc(C(=N)N)cc3)nc2)cc1
The melting point of the first is lower: 226 to 228 °C for the first, over 300 °C for the second.

First: CCOCCOc1ccccc1-c1cc(=O)c2cc(C(=O)O)ccc2o1
Second: COc1cc(C(C)=O)ccc1OCCCCN1CCC(c2noc3ccccc23)CC1
The melting point of the first is higher: 198 to 200 °C for the first, 99 to 101 °C for the second.

Compared with `S=c1[nH]cnn1C1CCc2ccccc2C1` (configuration not stated), `Cc1oc(-c2ccccc2)nc1COc1ccc2c(c1)CCC(CC1SC(=O)NC1=O)C2` (configuration not stated) is lower in melting point: 200 °C for the first, 194 to 195 °C for the second.

First: CC(C)c1cccc(S(=O)(=O)n2c(Cc3ccc(C(=O)O)cc3)cc3cc(C(F)(F)F)ccc32)c1
Second: O=C(O)c1cc(SCC(=O)c2ccccc2)cc(C(F)(F)F)c1
The melting point of the first is higher: 175 °C for the first, 135 to 150 °C for the second.

First: CC(=O)NNc1ccnc2c(NC(=O)c3c(Cl)cccc3Cl)cc(C(F)(F)F)cc12
Second: O=C1CNc2cccc(Oc3cc(-c4ccc(C(F)(F)F)cc4)ncn3)c2N1
The melting point of the first is lower: 174 to 178 °C for the first, 305 °C for the second.

Compared with `O=C(O)c1cccc2nc3cc(Br)ccc3nc12`, `O=C(O)c1cccc(CC2COc3cc(OCc4ccc5ccccc5n4)ccc3C2O)c1` (configuration not stated) is lower in melting point: 268 to 269 °C for the first, 165 to 168 °C for the second.

First: CCCCNC(=S)NS(=O)(=O)c1cc2c(cc1OC)OCCC2CNC(=O)c1cc(Cl)ccc1OC (configuration not stated)
Second: COc1cc2c(cc1OC)C(NCC(=O)O)CC2 (configuration not stated)
The melting point of the first is lower: 167 °C for the first, 213 to 216 °C for the second.

Compared with `CC(=O)N[C@H]1c2cc(C#N)ccc2OC(C)(C)[C@H]1O` (relative stereo), `CC(C)N1Cc2cncn2C(c2ccc(C#N)cc2)C1=O` (configuration not stated) is lower in melting point: 193 to 194 °C for the first, 122 to 124 °C for the second.

Compared with `O=C(NCCCn1ccnc1)c1ccccc1`, `CCOC(=O)CCCCN1CCc2ccc(NS(=O)(=O)c3ccccc3)cc2C1` is lower in melting point: 134 to 136 °C for the first, 120 to 121 °C for the second.

First: Cc1oc(-c2ccccc2)nc1COc1ccc(Cn2cc(CCC(=O)O)c(-c3ccccc3)n2)nc1
Second: CCOC(=O)c1cn(Cc2ccc(OCc3csc(-c4ccccc4)n3)cc2)nc1-c1cccs1
The melting point of the first is higher: 175 to 176 °C for the first, 94 to 95 °C for the second.

First: COc1nc(NNc2nc(OC)nc(OC)n2)nc(OC)n1
Second: COc1cc(C=O)c(Cl)c(Cl)c1OC
The melting point of the first is higher: 222 to 224 °C for the first, 120 to 123 °C for the second.

First: CCCCCCCCCC(=O)CCC(C)=O
Second: CCCCCCC(=O)C=Cc1ccc(O)c(O)c1
The melting point of the first is lower: 52 to 53 °C for the first, 114 to 115 °C for the second.

First: O=c1[nH]c(C=Cc2ccc([N+](=O)[O-])o2)nc2ccccc12
Second: Clc1c2ccccc2nc2occc12
The melting point of the first is higher: 327 °C for the first, 112 to 113 °C for the second.

First: Cc1nc2nc(S(=O)(=O)Cl)nn2cc1Cl
Second: CSc1nc(Cl)c([N+](=O)[O-])c(N2CCS(=O)CC2)n1
The melting point of the first is lower: 99 to 101 °C for the first, 176 to 178 °C for the second.

Compared with `COCc1cccc(-c2ccc3nc(-c4ccc(Cl)cc4)c(Cl)n3c2)c1`, `Cc1cc(-c2ccc(Cl)cc2)nc2c(C(=O)Nc3cccc(S(N)(=O)=O)c3)cnn12` is higher in melting point: 120 to 122 °C for the first, 308 to 310 °C for the second.

First: O=C1c2ccccc2C(O)N1CCCl (configuration not stated)
Second: O=C(O)COCCOCCN1C(=O)c2ccccc2C1=O
The melting point of the first is higher: 133 to 134 °C for the first, 88 to 90 °C for the second.

Compared with `CC(=O)N1CCc2cc(CC(C)Br)ccc21` (configuration not stated), `COc1cc2c(cc1OC)-c1ncc(C(N)=O)c(=O)n1CC2` is higher in melting point: 124 to 126 °C for the first, 313 to 315 °C for the second.

First: CNc1nc(N)ncc1-c1ccc(Cl)cc1Cl
Second: O=C(Nc1ccc(F)cc1F)c1nc(Cl)c(Cl)[nH]1
The melting point of the first is lower: 189 to 190 °C for the first, 290 °C for the second.

First: O=C(O)c1c(-c2cccc(Cl)c2)csc1N1C(=O)c2ccccc2C1=O
Second: CC1=C(C(=O)OC(C)C)C(c2cccc(Cl)c2)NC(=O)N1C(=O)NC(C)c1ccccc1 (configuration not stated)
The melting point of the first is higher: 203 to 204 °C for the first, 198 to 200 °C for the second.

Compared with `Cc1ccc(OCc2ccccc2)c(C(CCO)c2ccccc2)c1` (configuration not stated), `Cc1cccc(NC(=O)NC(C(=O)N(CC(=O)OC(C)(C)C)c2ccccc2)c2ccccc2)c1` (racemic) is higher in melting point: 69 to 71 °C for the first, 178 °C for the second.

Compared with `CC(C)CNS(=O)(=O)CCCCl`, `CCCC(=O)Nc1ccc2c(c1)C(=O)c1cc(NC(=O)CCC)ccc1C2=O` is higher in melting point: 68 to 69 °C for the first, 275 °C for the second.

First: O=C(O)c1cc(S(=O)(=O)NC2CCCCC2)cc2c1OCCO2
Second: CCOC(=O)N1CCC(Nc2cc(OC)ccc2[N+](=O)[O-])CC1
The melting point of the first is higher: 150 °C for the first, 115 to 117 °C for the second.

First: O=[N+]([O-])c1nccn1CC(O)CN1CC1 (configuration not stated)
Second: CCN1CC(=O)N(C)c2cc([N+](=O)[O-])c(OC)cc2C1
The melting point of the first is lower: 118 to 120 °C for the first, 129 to 131 °C for the second.

Compared with `CCC(=O)C(=CS(=O)(=O)c1ccc(OS(=O)(=O)c2ccc(C)cc2)cc1)N(C)C`, `CCOC(=O)C(=O)Nc1cc(C)ccc1[N+](=O)[O-]` is lower in melting point: 148 to 150 °C for the first, 114 °C for the second.

Compared with `Brc1ccc2c(c1)C1(c3ccccc3-c3ccccc31)c1ccccc1-2`, `O=C(O)COc1ccc2cc(-c3sc4ccccc4c3C(=O)Cc3ccccc3)ccc2c1Br` is lower in melting point: 181 to 183 °C for the first, 170 to 172 °C for the second.

`CCOC(CNc1nc2ccccc2[nH]1)OCC` and `CCCSc1ncc(CC(C(=O)O)C(=O)OCC)n1Cc1ccccc1Cl` (configuration not stated) cannot be ordered by melting point: 117 to 121 °C for the first, 118 to 120 °C for the second.

First: Nc1ccc(F)c(-c2ccccn2)c1F
Second: CN1C(C(=O)Nc2ccccn2)=C(O)c2sc3ccccc3c2S1(=O)=O
The melting point of the first is lower: 71 to 73 °C for the first, 222 to 224 °C for the second.

Compared with `CCCc1n[nH]c(C(N)=O)c1N`, `CCOC(=O)C1=C(C)NNC(CC)=C1c1ccco1` is lower in melting point: 196 to 201 °C for the first, 82 °C for the second.

First: CNC(=S)NCCCCCC1CCSS1 (configuration not stated)
Second: CCCCCCOc1cc2c(cc1/C(C)=C/C=C/C(C)=C/C(=O)O)C(C)(C)CCCS2(=O)=O
The melting point of the first is lower: 64 to 65 °C for the first, 164 to 165 °C for the second.

Compared with `CN(C(=O)C(C#N)C(=O)c1nn(-c2ccccc2)c2c1COc1ccccc1-2)c1ccccc1` (configuration not stated), `CC1=C(C(=O)OCc2ccccc2)C(c2ccccc2C(F)(F)F)c2c(ccnc2OC(C)C)N1` (configuration not stated) is lower in melting point: 183 to 184 °C for the first, 131 °C for the second.

First: FC1(N2CCOCC2)C=C(Cl)C=CC1NC(=S)C1C=CCCC1 (configuration not stated)
Second: Cc1cccc(-c2ccccc2NC(=N)N2CCCCC2)c1
The melting point of the first is lower: 86 to 88 °C for the first, 131 °C for the second.

Compared with `Cc1c(OC(=O)C(C)(C)C)c(=O)ccn1C`, `CO/C=C(/C(=O)OC)c1ccccc1C=O` is lower in melting point: 112 to 113 °C for the first, 67 to 69 °C for the second.

First: CCCN(CCC)C1CNc2c(cc(Br)cc2[N+](=O)[O-])C1 (configuration not stated)
Second: COc1cc(O)c([N+](=O)[O-])cc1C(F)(F)F
The melting point of the first is higher: 88 to 91 °C for the first, 77 to 78 °C for the second.

First: O=C1NC(N2CCN(c3cnccn3)CC2)c2ccccc21 (configuration not stated)
Second: O=CN1c2ccccc2N(Cc2ccccc2)CC1CN1CCCC1 (configuration not stated)
The melting point of the first is higher: 242 to 246 °C for the first, 94 to 96 °C for the second.

Compared with `CN1C(=O)CC[C@]2(C)c3ccc(-c4cccc(Cl)c4)cc3CC[C@@H]12`, `O=c1[nH]c2cccc(Cl)c2c(=O)n1CCCN1CC=C(c2ccc(Cl)cc2)CC1` is higher in melting point: 158 to 165 °C for the first, 190 to 194 °C for the second.

First: COc1ccc(-n2c(CC(=O)O)c(C(=O)O)c3cc(Oc4ccc(OC(C)C)cc4)ccc32)cc1
Second: CC(=O)OCc1ccc(OCC(OC(C)=O)c2cc3cc(C(C)C)ccc3o2)cc1 (configuration not stated)
The melting point of the first is higher: 226 °C for the first, 74 to 76 °C for the second.

First: CC1(C)COP(N(CCCN(C2CC(C)(C)NC(C)(C)C2)P2OCC(C)(C)CO2)C2CC(C)(C)NC(C)(C)C2)OC1
Second: CN(C(=O)OC(C)(C)C)c1cc(Oc2ccc(C34CC5CC(CC(C5)C3)C4)cc2)ccc1N
The melting point of the first is higher: 102 °C for the first, 85 to 90 °C for the second.

First: COc1cc(C)cc(Sc2cccc(N)c2C#N)c1
Second: COc1cccc(C2=Nc3ccc(N4CCCC4)cc3C(=O)C2)c1OC
The melting point of the first is lower: 108 to 110 °C for the first, 258 to 260 °C for the second.

Compared with `Cn1cc(-c2cc(-c3cnc4ccccc4c3)ccn2)n(-c2ccc(C(C)(C)CN)cc2)c1=O`, `O=c1c2ccccc2[nH]c(=S)n1CCN1CCC(Nc2nc3ccccc3n2Cc2ccc(F)cc2)CC1` is higher in melting point: 132 °C for the first, 198 °C for the second.

First: CNC(=O)N(C)C(=O)Nc1nc(C(Cl)(Cl)Cl)ns1
Second: CCCCc1nc(Cl)c(CC(=O)O)c(Cc2ccc(C(=O)O)cc2)n1
The melting point of the first is lower: 94 °C for the first, 205 °C for the second.

First: Cn1nc(-c2c(F)cc(Cl)c(=S)n2Cc2ccccc2)c(Cl)c1OC(F)F
Second: CC(C)CCOCc1cccc(N2N=C(C(N)=O)NC2c2ccccc2F)c1 (configuration not stated)
The melting point of the first is higher: 135 to 138 °C for the first, 120 to 122 °C for the second.

First: CCn1c(=O)c2c(nc(/C=C/c3ccc(OCOC)c(OC)c3)n2C)n(CC)c1=O
Second: CCOC(=O)c1c(N2CCNCC2)c2ccc(C)nc2n(CC)c1=O
The melting point of the first is higher: 179 to 181 °C for the first, 137 to 139 °C for the second.

Compared with `Cc1nc(-c2c(C#N)nn(-c3c(Cl)cc(C(F)(F)F)cc3Cl)c2N)cs1`, `CC(C(=O)NCC(F)(F)C(F)(F)F)C(=O)NC1C(=O)N(C)c2c(F)cccc2OC1C` (configuration not stated) is lower in melting point: 226 to 228 °C for the first, 126 to 134 °C for the second.

Compared with `CCOC(=O)c1c[nH]c2c(OC)ccc(-c3ccccc3)c2c1=O`, `COc1cnn([C@@H]2C[C@H](O)[C@@H](O)[C@H]2O)c(=O)c1Cl` (racemic) is lower in melting point: 234 to 237 °C for the first, 166 to 168 °C for the second.
